These results are taken from patent US9550739B2, “Molecules having certain pesticidal utilities, and intermediates, compositions, and processes related thereto” (priority 2014, dated 2017).

Holding throughout (assay type): in vivo
Data set [1] deals with Yellow Fever Mosquito (Aedes aegypti, AEDSAE) ("YFM"). The following applies: about 1 day-old larvae, 4000 ppm master solution diluted, 3 days, room temperature. The protocol:
Certain molecules disclosed in this document were tested against YFM using procedures described in the following paragraph. In the reporting of the results, the “YFM Rating Table” was used (See Table Section).
Master plates containing 400 μg of a molecule dissolved in 100 μL of dimethyl sulfoxide (DMSO) (equivalent to a 4000 ppm solution) are used. A master plate of assembled molecules contains 15 μL per well. To this plate, 135 μL of a 90:10 water:acetone mixture is added to each well. A robot (Biomek® NXP Laboratory Automation Workstation) is programmed to dispense 15 μL aspirations from the master plate into an empty 96-well shallow plate (“daughter” plate). There are 6 reps (“daughter” plates) created per master. The created daughter plates are then immediately infested with YFM larvae.
The day before plates are to be treated, mosquito eggs are placed in Millipore water containing liver powder to begin hatching (4 g. into 400 mL). After the daughter plates are created using the robot, they are infested with 220 μL of the liver powder/larval mosquito mixture (about 1 day-old larvae). After plates are infested with mosquito larvae, a non-evaporative lid is used to cover the plate to reduce drying. Plates are held at room temperature for 3 days prior to grading. After 3 days, each well is observed and scored based on mortality.

For data set [2], the system named is Beet Armyworm (Spodoptera exigua, LAPHEG) ("BAW"). The experiment in a line: Bioassays on Beet Armyworm (BAW), 128-well diet tray assay. The settings on record: Spodoptera exigua, 168 h; second instar BAW larvae, 50 μg/cm^2 on artificial diet, five to seven days, 25° C.; read-out: BAW % Control (or Mortality) rating. As for the experimental part: (§1) Certain molecules disclosed in this document were tested against BAW and CEW using procedures described in the following examples. In the reporting of the results, the “BAW & CL Rating Table” was used (See Table Section).
Bioassays on BAW were conducted using a 128-well diet tray assay. one to five second instar BAW larvae were placed in each well (3 mL) of the diet tray that had been previously filled with 1 mL of artificial diet to which 50 μg/cm^2 of the test compound (dissolved in 50 μL of 90:10 acetone-water mixture) had been applied (to each of eight wells) and then allowed to dry. Trays were covered with a clear self-adhesive cover and held at 25° C., 14:10 light-dark for five to seven days. Percent mortality was recorded for the larvae in each well; activity in the eight wells was then averaged. The results are indicated in the table entitled “Table ABC: Biological Results” (See Table Section).

For data set [3], the system named is Cabbage Looper (Trichoplusia ni, TRIPNI) ("CL"). The experiment in a line: Bioassays on Cabbage Looper (CL), 128-well diet tray assay. The following applies: Trichoplusia ni, 168 h, read-out: CL % Control (or Mortality) rating. The protocol: as §1
Bioassays on CL were conducted using a 128-well diet tray assay. one to five second instar CL larvae were placed in each well (3 mL) of the diet tray that had been previously filled with 1 mL of artificial diet to which 50 μg/cm^2 of the test compound (dissolved in 50 μL of 90:10 acetone-water mixture) had been applied (to each of eight wells) and then allowed to dry. Trays were covered with a clear self-adhesive cover and held at 25° C., 14:10 light-dark for five to seven days. Percent mortality was recorded for the larvae in each well; activity in the eight wells was then averaged. The results are indicated in the table entitled “Table ABC: Biological Results” (See Table Section).

Each structure is given as a SMILES string.

`Cc1ccccc1-c1cc(C(=O)Nc2ccc(-c3ncn(-c4ccc(OC(F)(F)F)cc4)n3)cc2)ccc1Cl` [F32, 6-Chloro-2′-methyl-N-(4-(1-(4-(trifluoromethoxy)phenyl)-1H-1,2,4-triazol-3-yl)phenyl)-[1,1′-biphenyl]-3-carboxamide]: the “YFM % Control (or Mortality) rating” value in data set [1] is “D (No activity noticed in this bioassay)”. Besides, the mortality (as a rule, the percentage killed) at 50 µg/cm2 in data set [2] was 0%; in data set [3] it was 50 to 100%.

`CC(=O)c1ccccc1-c1cccc(C(=O)Nc2ccc(-c3ncn(-c4ccc(OC(F)(F)F)cc4)n3)cc2)c1` [F41, 2′-Acetyl-N-(4-(1-(4-(trifluoromethoxy)phenyl)-1H-1,2,4-triazol-3-yl)phenyl)-[1,1′-biphenyl]-3-carboxamide]: in data set [1], the “YFM % Control (or Mortality) rating” value is “A (80-100)”. Also, the mortality at 50 µg/cm2 in data set [2] and in data set [3] was 50 to 100% in each case.

With `O=C(Nc1ccc(-c2ncn(-c3ccc(OC(F)(F)F)cc3)n2)cc1)c1cccc(-c2ccc(Cl)cc2Cl)n1` [F18, 6-(2,4-Dichlorophenyl)-N-(4-(1-(4-(trifluoromethoxy)phenyl)-1H-1,2,4-triazol-3-yl)phenyl)picolinamide], in data set [1], the “YFM % Control (or Mortality) rating” value was “D (No activity noticed in this bioassay)”. For the same compound, the mortality at 50 µg/cm2 in data set [2] and in data set [3] was 0% throughout.

Consider `O=C(Nc1ccc(-c2ncn(-c3ccc(OC(F)(F)F)cc3)n2)cc1)c1ccc(Cl)c(-c2ccccc2)c1` [F34, 6-Chloro-N-(4-(1-(4-(trifluoromethoxy)phenyl)-1H-1,2,4-triazol-3-yl)phenyl)-[1,1′-biphenyl]-3-carboxamide], for which the “YFM % Control (or Mortality) rating” value in data set [1] is given as “D (No activity noticed in this bioassay)”. The mortality at 50 µg/cm2 in data set [2] and in data set [3] was 50 to 100% throughout.

Take `COc1ccccc1-c1cc(C(=O)Nc2ccc(-c3ncn(-c4ccc(OC(F)(F)F)cc4)n3)cc2)ccc1F` [F44, 6-Fluoro-2′-methoxy-N-(4-(1-(4-(trifluoromethoxy)phenyl)-1H-1,2,4-triazol-3-yl)phenyl)-[1,1′-biphenyl]-3-carboxamide]: the “YFM % Control (or Mortality) rating” value in data set [1] is recorded as “B (More than 0-Less than 80)”. Further, the mortality at 50 µg/cm2 in data set [2] and in data set [3] was 50 to 100% in each case.

In the case of `O=C(Nc1ccc(-c2ncn(-c3ccc(OC(F)(F)F)cc3)n2)cc1)c1cc(Cl)cc(-c2ccccc2)c1` [F43, 5-Chloro-N-(4-(1-(4-(trifluoromethoxy)phenyl)-1H-1,2,4-triazol-3-yl)phenyl)-[1,1′-biphenyl]-3-carboxamide], the “YFM % Control (or Mortality) rating” value in data set [1] is “D (No activity noticed in this bioassay)”. The mortality at 50 µg/cm2 in data set [2] and in data set [3] was 50 to 100% each time.

Take `CN(C)c1ccccc1-c1cccc(C(=O)Nc2ccc(-c3ncn(-c4ccc(OC(F)(F)F)cc4)n3)cc2)c1` [F10, 2′-(Dimethylamino)-N-(4-(1-(4-(trifluoromethoxy)phenyl)-1H-1,2,4-triazol-3-yl)phenyl)-[1,1′-biphenyl]-3-carboxamide]: the “YFM % Control (or Mortality) rating” value in data set [1] is “B (More than 0-Less than 80)”. In addition, the mortality at 50 µg/cm2 in data set [2] and in data set [3] was 50 to 100% in each case.

With `O=C(Nc1ccc(-c2ncn(-c3ccc(OC(F)(F)F)cc3)n2)cc1)c1ccc(F)c(-c2ccccc2F)c1` [F28, 2′,6-Difluoro-N-(4-(1-(4-(trifluoromethoxy)phenyl)-1H-1,2,4-triazol-3-yl)phenyl)-[1,1′-biphenyl]-3-carboxamide], in data set [1], the “YFM % Control (or Mortality) rating” value is “A (80-100)”. Also, the mortality at 50 µg/cm2 in data set [2] and in data set [3] was 50 to 100% throughout.

Regarding `COc1ccc(C(=O)Nc2ccc(-c3ncn(-c4ccc(OC(F)(F)F)cc4)n3)cc2)cc1-c1ccccc1` [F37, 6-Methoxy-N-(4-(1-(4-(trifluoromethoxy)phenyl)-1H-1,2,4-triazol-3-yl)phenyl)-[1,1′-biphenyl]-3-carboxamide], in data set [1], the “YFM % Control (or Mortality) rating” value was “A (80-100)”. In addition, the mortality at 50 µg/cm2 in data set [2] and in data set [3] was 50 to 100% each time.

As to `O=C(Nc1ccc(-c2ncn(-c3ccc(OC(F)(F)C(F)(F)F)cc3)n2)cc1)c1cccc(-c2ccccc2)c1` [F45, N-(4-(1-(4-(perfluoroethoxy)phenyl)-1H-1,2,4-triazol-3-yl)phenyl)-[1,1′-biphenyl]-3-carboxamide], the “YFM % Control (or Mortality) rating” value in data set [1] is on record as “D (No activity noticed in this bioassay)”. The mortality at 50 µg/cm2 in data set [2] and in data set [3] was 50 to 100% in each case.

Consider `COc1ccc(-c2cccc(C(=O)Nc3ccc(-c4ncn(-c5ccc(OC(F)(F)F)cc5)n4)cc3)c2)c(C)c1` [F49, 4′-Methoxy-2′-methyl-N-(4-(1-(4-(trifluoromethoxy)phenyl)-1H-1,2,4-triazol-3-yl)phenyl)-[1,1′-biphenyl]-3-carboxamide], for which the “YFM % Control (or Mortality) rating” value in data set [1] was “B (More than 0-Less than 80)”. The mortality at 50 µg/cm2 in data set [2] and in data set [3] was 50 to 100% in each case.

In the case of `O=C(Nc1ccc(-c2ncn(-c3ccc(C(F)(F)F)cc3)n2)cc1)c1ccccn1` [F68, N-(4-(1-(4-(trifluoromethyl)phenyl)-1H-1,2,4-triazol-3-yl)phenyl)picolinamide], the “YFM % Control (or Mortality) rating” value in data set [1] is “D (No activity noticed in this bioassay)”. The results for the mortality at 50 µg/cm2 in data set [2] and in data set [3] were 0 to 50% and 0%, respectively.

On to `Cc1cccc(C)c1-c1cccc(C(=S)Nc2ccc(-c3ncn(-c4ccc(OC(F)(F)F)cc4)n3)cc2)c1` [F46, 2′,6′-dimethyl-N-(4-(1-(4-(trifluoromethoxy)phenyl)-1H-1,2,4-triazol-3-yl)phenyl)-[1,1′-biphenyl]-3-carbothioamide], for which the “YFM % Control (or Mortality) rating” value in data set [1] was “D (No activity noticed in this bioassay)”. The mortality at 50 µg/cm2 in data set [2] is 0 to 50%; in data set [3] it was 0%.

For the compound `O=C(Nc1ccc(-c2ncn(-c3ccc(OC(F)(F)C(F)(F)F)cc3)n2)cc1)c1cccc(-c2ccccc2)n1` [F47, N-(4-(1-(4-(Perfluoroethoxy)phenyl)-1H-1,2,4-triazol-3-yl)phenyl)-6-phenylpicolinamide], the “YFM % Control (or Mortality) rating” value in data set [1] is “D (No activity noticed in this bioassay)”. Besides, the mortality at 50 µg/cm2 in data set [2] and in data set [3] was 0% each time.

For the compound `CC(C)Oc1ccc(-n2cnc(-c3ccc(NC(=O)c4ccc(F)c(-c5ccccc5)c4)cc3)n2)cc1` [F16, 6-Fluoro-N-(4-(1-(4-isopropoxyphenyl)-1H-1,2,4-triazol-3-yl)phenyl)-[1,1′-biphenyl]-3-carboxamide], the “YFM % Control (or Mortality) rating” value in data set [1] is “B (More than 0-Less than 80)”. The mortality at 50 µg/cm2 in data set [2] is 0%; in data set [3], 50 to 100%.

On to `Cc1ccccc1-c1cccc(C(=O)Nc2ccc(-c3ncn(-c4ccc(OC(F)(F)C(F)(F)F)cc4)n3)cc2)c1` [F35, 2′-Methyl-N-(4-(1-(4-(perfluoroethoxy)phenyl)-1H-1,2,4-triazol-3-yl)phenyl)-[1,1′-biphenyl]-3-carboxamide], for which the “YFM % Control (or Mortality) rating” value in data set [1] is listed as “D (No activity noticed in this bioassay)”. Moreover, the mortality at 50 µg/cm2 in data set [2] and in data set [3] was 50 to 100% throughout.

On to `Cc1ccccc1-c1cccc(C(=O)Nc2ccc(-c3ncn(-c4ccc(OC(F)(F)F)cc4)n3)cc2)n1` [F33, 6-(o-Tolyl)-N-(4-(1-(4-(trifluoromethoxy)phenyl)-1H-1,2,4-triazol-3-yl)phenyl)picolinamide], for which the “YFM % Control (or Mortality) rating” value in data set [1] is “D (No activity noticed in this bioassay)”. Besides, the mortality at 50 µg/cm2 in data set [2] is 0%; in data set [3], 50 to 100%.

Consider `O=C(NCc1ccc(-c2ncn(-c3ccc(OC(F)(F)F)cc3)n2)cc1)c1cccc(-c2ccccc2)c1` [F57, N-(4-(1-(4-(trifluoromethoxy)phenyl)-1H-1,2,4-triazol-3-yl)benzyl)-[1,1′-biphenyl]-3-carboxamide], for which the “YFM % Control (or Mortality) rating” value in data set [1] is given as “D (No activity noticed in this bioassay)”. Further, the results for the mortality at 50 µg/cm2 in data set [2] and in data set [3] were 0% and 50 to 100%, respectively.
